From patent publication US20150164916A1, “ROFLUMILAST COMPOSITIONS FOR THE TREATMENT OF COPD” (Forest Laboratories Holdings Ltd., priority 2012, published 2015)

How the values were obtained:
Type in all cases: cell-based, human
CCL-5 release = experiment: LPS-induced CCL-5 release in isolated peripheral blood neutrophils (LUMINEX); details: LPS (1 μg/ml), 6 h
Protocol: (§1) Neutrophils and monocytes were isolated from peripheral venous blood by standard laboratory procedures. In brief, peripheral venous blood was mixed with dextran 500 at 3% (in 0.9% saline) in a proportion of 2:1. This mixture was incubated at room temperature for 30 min until erythrocytes were sedimented. The upper phase was carefully collected and added on Ficoll-Paque Histopaque 1077 (Amershan Pharmacia Biotech, Barcelona, Spain) density gradient in a proportion of 3:1. The two phases generated were centrifuged at 150 g, 4° C. for 30 min. Thus, the interface was collected to isolate monocytes, and the pellet obtained (which is consisted a mixture of neutrophils and low proportion of residual erythrocytes and traces of eosinophils and basophils) was resuspended in an erythrocyte lysis buffer (Biolegend, UK) for 5 min in ice. Cell suspension was washed two times with phosphate buffer (PBS).
(§2) Peripheral neutrophil cell suspension was adjusted to 500×10^3 cells per well in 24-well plates and incubated in RPMI culture medium for 1 h into the incubator at 37° C., 5% CO2. […] Both the stimulus and drug were remained together for 6 h. Supernatants were collected and centrifuged at 120 g for 5 min, and the free-cell supernatant was used to measure IL-8, MMP-9, IL-1β, GM-CSF and CCL-5.
(§3) IL-8 was determined by using commercially available enzyme-linked immunosorbent assay kit for IL-8 (R&D Systems, UK) according to the manufacturer's protocol. MMP-9, IL-1β, GM-CSF and CCL-5 were measured by LUMINEX technology according to the manufacturer's protocol.
(§4) Data were presented as mean±SEM. IC50 values were calculated for each drug and their combinations. Statistical analysis of results was carried out by analysis of variance (ANOVA) followed by Bonferroni test, by Student's t test, or by non-parametric tests as appropriate (GraphPad Software Inc, San Diego, Calif., USA). Significance was accepted when P<0.05. For clinical correlations of lung function and gene expression from neutrophils the non-parametric Spearman correlation analysis was carried out.

intracellular ROS = experiment: Intracellular reactive oxygen species (ROS) by flow cytometry in whole blood neutrophils from COPD patients; details: fMLP 1 μM or CSE 5%, 1 h, NAC 1 mM
Protocol: Intracellular reactive oxygen species (ROS) were measured by a flow cytometry assay using 2′,7′-dichlorodihydrofluorescein diacetate (H2DCF-DA, Molecular Probes, UK) as previously outlined (Milara et al., 2010). H2DCF-DA was added for 15 min before stimulus to a final concentration of 5 μM to measure intracellular ROS. The bacterial peptide fMLP was added as stimulus at 1 μM […] to generate intracellular ROS (Elbim et al., 2001). In other experiments, to reproduce in vivo conditions, CSE 5% was added to generate intracellular ROS. Intracellular ROS was measured using fresh whole blood from COPD patients. Blood neutrophils were selected using CD16-Alexa Fluor 647 antibody (molecular probes, UK) as neutrophil marker, and CD14-PerCEP-Cy5.5 mouse antihuman (molecular probes, UK) as monocyte marker in an Epics Profile II flow cytometer. A total of 1 ml of whole blood was pre-incubated at 37° C. for 30 min with RNO ([…] (1 mM) and H2DCF-DA followed by fMLP 1 μM or CSE 5% stimulation for another 1 h. Then erythrocytes were lysed using a commercial erythrocyte lysis buffer (Biolegend, UK) for 10 min. Fluorescence intensity was measured in the polymorphonuclear region of whole blood in an Epics Profile II flow cytometer. Results were expressed as DCF fluorescence in relative fluorescence units (RFU).
To this end, whole blood was stimulated with the bacterial peptide fMLP 1 μM or with CSE 5% in presence or absence of RNO or NAC for 1 h.

IL-8 release = experiment: LPS- or CSE-induced IL-8 release in isolated peripheral blood neutrophils (ELISA); details: 6 h
Protocol: as §1
CSE was prepared as previously outlined (Milara et al.; Ortiz et al.). Briefly, the smoke of a research cigarette (2R4F; Tobacco Health Research, University of Kentucky, KY, USA) was generated by a respiratory pump (Apparatus Rodent Respirator 680; Harvard, Germany) through a puffing mechanism related to the human smoking pattern (3 puff/min; 1 puff 35 ml; each puff of 2 s duration with 0.5 cm above the filter) and was bubbled into a flask containing 25 ml of pre-warmed (37° C.) RPMI 1640 culture medium supplemented as describe above. The CSE solution was sterilized by filtration through a 0.22-μm cellulose acetate sterilizing system (Corning, N.Y.). The resultant CSE solution was considered to be 100% CSE and was used for experiments within 30 min of preparation. CSE 10% corresponds approximately to the exposure associated with smoking two packs per day (Su et al., 1998). The quality of the prepared CSE solution was assessed based on the absorbance at 320 nm, which is the specific absorption wavelength of peroxynitrite. Stock solutions with an absorbance value of 3.0±0.1 were used. To test for cytotoxicity from CSE, isolated neutrophils and monocytes were treated with CSE concentrations of up to 5% for 24.
as §2, §3, §4

[1] = CSE 5%, neutrophils from COPD patients
[2] = CSE 5%, neutrophils from HEALTHY
[3] = LPS (1 μg/ml), neutrophils from COPD patients
[4] = LPS (1 μg/ml), neutrophils from HEALTHY

-log IC50, inhibition of CCL-5 release (CCL-5 release; neutrophils from COPD patients): 8.77 ± 0.35
-log IC50, inhibition of IL-8 release (IL-8 release; [1]): 7.92 ± 0.1
-log IC50, inhibition of IL-8 release (IL-8 release; [3]): 7.44 ± 0.24
SMILES: O=C(Nc1c(Cl)c[n+]([O-])cc1Cl)c1ccc(OC(F)F)c(OCC2CC2)c1 [RNO, roflumilast N-oxide]
Maximal % Inhibition of CCL-5 release (CCL-5 release; neutrophils from COPD patients): 83.01 ± 6.74%
-log IC50, inhibition of CCL-5 release (CCL-5 release; neutrophils from HEALTHY): 8.62 ± 0.14
Maximal % Inhibition of CCL-5 release (CCL-5 release; neutrophils from HEALTHY): 79.34 ± 3.63%
effect on ROS generation in neutrophils (intracellular ROS): dose-dependently inhibited
effect on ROS generation in neutrophils (intracellular ROS; listed as Roflumilast N-oxide): inhibits
Maximal % Inhibition of IL-8 release (IL-8 release; [1]): 88.9 ± 5.62%
-log IC50, inhibition of IL-8 release (IL-8 release; [2]): 7.95 ± 0.12
Maximal % Inhibition of IL-8 release (IL-8 release; [2]): 90.4 ± 5.4%
Maximal % Inhibition of IL-8 release (IL-8 release; [3]): 48.70 ± 5.18%
-log IC50, inhibition of IL-8 release (IL-8 release; [4]): 7.46 ± 0.26
Maximal % Inhibition of IL-8 release (IL-8 release; [4]): 40.50 ± 4.55%
